Reference: patent US20230113037A1 (Bayer Aktiengesellschaft, priority 2019, published 2023)
Read-outs that look alike come from different tables or passages of the source.

Tests used:
AHR [1] = target: T1, AHR (Mus musculus, UniProt P30561); assay: In vitro assay 3: antagonism in mouse cell line (AHR transactivation, firefly luciferase reporter, kynurenic acid prestimulated); format: cell-based
T1 sequence (P30561 1-848 P471L/N533S/M589L): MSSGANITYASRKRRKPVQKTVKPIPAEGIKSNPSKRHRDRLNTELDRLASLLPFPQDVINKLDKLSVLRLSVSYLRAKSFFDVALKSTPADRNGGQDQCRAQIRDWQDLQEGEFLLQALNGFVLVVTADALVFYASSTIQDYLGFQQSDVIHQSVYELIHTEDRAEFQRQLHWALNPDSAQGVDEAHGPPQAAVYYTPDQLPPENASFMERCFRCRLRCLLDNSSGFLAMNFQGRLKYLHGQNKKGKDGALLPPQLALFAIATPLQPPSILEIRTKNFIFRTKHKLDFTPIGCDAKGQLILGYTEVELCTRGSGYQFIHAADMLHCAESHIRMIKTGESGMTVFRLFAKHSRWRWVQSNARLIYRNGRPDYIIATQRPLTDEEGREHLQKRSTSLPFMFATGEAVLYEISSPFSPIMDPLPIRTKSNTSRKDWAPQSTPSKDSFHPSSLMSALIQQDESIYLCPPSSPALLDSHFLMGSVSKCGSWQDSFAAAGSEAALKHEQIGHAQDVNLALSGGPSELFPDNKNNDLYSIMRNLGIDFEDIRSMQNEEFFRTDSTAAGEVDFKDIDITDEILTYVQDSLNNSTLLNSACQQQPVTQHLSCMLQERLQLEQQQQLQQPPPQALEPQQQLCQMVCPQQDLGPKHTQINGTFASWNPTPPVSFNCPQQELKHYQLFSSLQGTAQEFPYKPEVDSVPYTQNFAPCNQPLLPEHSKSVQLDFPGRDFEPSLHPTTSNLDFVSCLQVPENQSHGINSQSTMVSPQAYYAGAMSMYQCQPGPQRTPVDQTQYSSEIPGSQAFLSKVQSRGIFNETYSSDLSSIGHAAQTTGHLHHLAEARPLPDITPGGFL
How it was run: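 Antagonism read as reduced firefly luciferase signal (SteadyGlo) from a stably transfected AHR/DRE reporter in a mouse line prestimulated with kynurenic acid. Data normalized to controls, the full-inhibition control being cells without kynurenic acid; multiple determinations given as average or median values.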

AHR [2] = target: T2, AHR (Homo sapiens, UniProt P35869); assay: In vitro assay 1: antagonism in human cell line (AHR transactivation, firefly luciferase reporter, kynurenic acid prestimulated); format: cell-based
T2 construct: U87 MG glioblastoma cells (ATCC #HTB-14) endogenously expressing AHR; endogenous in cells; host or cells: U87 MG glioblastoma cells (ATCC #HTB-14)
T2 sequence (P35869 11-848): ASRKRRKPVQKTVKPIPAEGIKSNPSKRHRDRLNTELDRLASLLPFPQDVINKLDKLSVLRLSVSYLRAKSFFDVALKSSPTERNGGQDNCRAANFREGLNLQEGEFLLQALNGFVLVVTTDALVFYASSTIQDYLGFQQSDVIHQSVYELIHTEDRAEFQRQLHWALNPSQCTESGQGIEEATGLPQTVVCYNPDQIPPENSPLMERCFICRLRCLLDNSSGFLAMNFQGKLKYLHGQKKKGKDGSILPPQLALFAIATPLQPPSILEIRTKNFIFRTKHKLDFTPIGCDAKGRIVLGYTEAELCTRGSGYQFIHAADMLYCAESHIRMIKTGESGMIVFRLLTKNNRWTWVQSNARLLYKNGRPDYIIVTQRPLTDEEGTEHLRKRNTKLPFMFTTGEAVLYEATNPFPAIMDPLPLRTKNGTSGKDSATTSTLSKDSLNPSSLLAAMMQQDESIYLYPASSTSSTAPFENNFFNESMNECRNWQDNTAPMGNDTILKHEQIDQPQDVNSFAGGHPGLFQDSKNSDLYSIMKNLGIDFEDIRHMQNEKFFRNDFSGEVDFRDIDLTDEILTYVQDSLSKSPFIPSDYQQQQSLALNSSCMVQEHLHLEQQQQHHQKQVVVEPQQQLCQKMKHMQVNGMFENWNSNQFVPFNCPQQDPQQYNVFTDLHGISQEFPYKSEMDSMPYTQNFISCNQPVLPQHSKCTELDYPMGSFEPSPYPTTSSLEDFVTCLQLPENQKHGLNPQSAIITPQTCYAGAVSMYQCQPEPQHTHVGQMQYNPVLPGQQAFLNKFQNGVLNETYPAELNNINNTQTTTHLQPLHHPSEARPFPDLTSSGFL
How it was run: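 Antagonism is measured against kynurenic acid prestimulation in U87 MG glioblastoma cells carrying stable DRE-luciferase and Renilla reporters. Positive inhibition control: 150 μM kynurenic acid with 5 μM staurosporine. Values are normalized to controls; repeats are averaged or given as medians.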

[3] = mouse Hepa 1c1c7 cells, 200 μM kynurenic acid, 20 hours, read-out: AHR Antagonism Mouse IC50
[4] = read-out: AHR Antagonism Mouse IC50, mouse Hepa 1c1c7 cells, 200 μM kynurenic acid, 20 hours

IC50 (AHR [1]; [3]) | IC50 (AHR [2]; AHR Antagonism Human IC50 [M]) | IC50 (AHR [2]; read-out: AHR Antagonism Human IC50) | Compound | IC50 (AHR [1]; [4])
5.66 nM | 5.1e-09 M | – | COc1cccc(-c2nc3c4ccccc4nc(N[C@@H](C)C(N)=O)n3n2)c1 (single isomer, unassigned) [Example 86, N^2-[2-(3-methoxyphenyl)[1,2,4]triazolo[1,5-c]quinazolin-5-yl]alaninamide] | –
73.3 nM | 2.75e-06 M | – | COc1cccc(-c2nc3c4ccccc4nc(NC4CNCCNC4=O)n3n2)c1 (single isomer, unassigned) [Example 116, 6-{[2-(3-methoxyphenyl)[1,2,4]triazolo[1,5-c]quinazolin-5-yl]amino}-1,4-diazepan-5-one] | –
76.5 nM | 9.04e-08 M | – | COc1cccc(-c2nc3c4ccccc4nc(NC4CNCCNC4=O)n3n2)c1 (single isomer, unassigned) [Example 117, 6-{[2-(3-methoxyphenyl)[1,2,4]triazolo[1,5-c]quinazolin-5-yl]amino}-1,4-diazepan-5-one] | –
40.2 nM | 6.43e-08 M | – | COc1cccc(-c2nc3c4ccccc4nc(NC4CCCNC4=O)n3n2)c1 (single isomer, unassigned) [Example 118, 3-{[2-(3-methoxyphenyl)[1,2,4]triazolo[1,5-c]quinazolin-5-yl]amino}piperidin-2-one] | –
202 nM | 7.8e-07 M | – | COc1cccc(-c2nc3c4ccccc4nc(NC4CCCNC4=O)n3n2)c1 (single isomer, unassigned) [Example 119, 3-{[2-(3-methoxyphenyl)[1,2,4]triazolo[1,5-c]quinazolin-5-yl]amino}piperidin-2-one] | –
56.1 nM | 6.02e-08 M | – | COc1cccc(-c2nc3c4ccccc4nc(NC4CCNC4=O)n3n2)c1 (single isomer, unassigned) [Example 120, 3-{[2-(3-methoxyphenyl)[1,2,4]triazolo[1,5-c]quinazolin-5-yl]amino}pyrrolidin-2-one] | –
275 nM | 1.96e-07 M | – | COc1cccc(-c2nc3c4ccccc4nc(NC4CCNC4=O)n3n2)c1 (single isomer, unassigned) [Example 121, 3-{[2-(3-methoxyphenyl)[1,2,4]triazolo[1,5-c]quinazolin-5-yl]amino}pyrrolidin-2-one] | –
26.1 nM | 5.55e-08 M | – | COc1cccc(-c2nc3c4ccccc4nc(NC4CCN(C)C4=O)n3n2)c1 (single isomer, unassigned) [Example 122, 3-{[2-(3-methoxyphenyl)[1,2,4]triazolo[1,5-c]quinazolin-5-yl]amino}-1-methylpyrrolidin-2-one] | –
1870 nM | 3.65e-07 M | – | COc1cccc(-c2nc3c4ccccc4nc(NC4CCN(C)C4=O)n3n2)c1 (single isomer, unassigned) [Example 123, 3-{[2-(3-methoxyphenyl)[1,2,4]triazolo[1,5-c]quinazolin-5-yl]amino}-1-methylpyrrolidin-2-one] | –
27.6 nM | 2.09e-08 M | – | COc1cccc(-c2nc3c4cc(F)ccc4nc(NC4CCNC4=O)n3n2)c1 (single isomer, unassigned) [Example 186, 3-{[9-fluoro-2-(3-methoxyphenyl)[1,2,4]triazolo[1,5-c]quinazolin-5-yl]amino}pyrrolidin-2-one] | –
321 nM | 6.04e-08 M | – | COc1cccc(-c2nc3c4cc(F)ccc4nc(NC4CCNC4=O)n3n2)c1 (single isomer, unassigned) [Example 187, 3-{[9-fluoro-2-(3-methoxyphenyl)[1,2,4]triazolo[1,5-c]quinazolin-5-yl]amino}pyrrolidin-2-one] | –
50.4 nM | 3e-08 M | – | COc1cccc(-c2nc3c4cc(F)ccc4nc(NC4CCCNC4=O)n3n2)c1 (single isomer, unassigned) [Example 188, 3-{[9-fluoro-2-(3-methoxyphenyl)[1,2,4]triazolo[1,5-c]quinazolin-5-yl]amino}piperidin-2-one] | –
114 nM | 2.61e-07 M | – | COc1cccc(-c2nc3c4cc(F)ccc4nc(NC4CCCNC4=O)n3n2)c1 (single isomer, unassigned) [Example 189, 3-{[9-fluoro-2-(3-methoxyphenyl)[1,2,4]triazolo[1,5-c]quinazolin-5-yl]amino}piperidin-2-one] | –
6180 nM | > 2e-05 M | – | O=C1NCCNCC1Nc1nc2cccc(C3CC3)c2c2nc(-c3cccc(F)c3)nn12 (single isomer, unassigned) [Example 300, 6-{[10-cyclopropyl-2-(3-fluorophenyl)[1,2,4]triazolo[1,5-c]quinazolin-5-yl]amino}-1,4-diazepan-5-one] | –
2240 nM | – | > 2e-05 M | O=C1NCCNCC1Nc1nc2cccc(C3CC3)c2c2nc(-c3cccc(F)c3)nn12 (single isomer, unassigned) [Example 301, 6-{[10-cyclopropyl-2-(3-fluorophenyl)[1,2,4]triazolo[1,5-c]quinazolin-5-yl]amino}-1,4-diazepan-5-one] | –
84.7 nM | 1.35e-07 M | – | CS(=N)(=O)c1ccc(-c2nc3c4ccccc4nc(N[C@@H]4CCCCNC4=O)n3n2)cc1 (single isomer, unassigned) [Example 307] | –
18.6 nM | 1.1e-07 M | – | CS(=N)(=O)c1ccc(-c2nc3c4ccccc4nc(N[C@@H]4CCCCNC4=O)n3n2)cc1 (single isomer, unassigned) [Example 308] | –
0.502 nM | 1.74e-08 M | – | CCNC(=O)C(CC)Nc1nc2ccccc2c2nc(-c3cccc(OC(F)(F)F)c3)nn12 (single isomer, unassigned) [Example 319, N-ethyl-2-({2-[3-(trifluoromethoxy)phenyl][1,2,4]triazolo[1,5-c]quinazolin-5-yl}amino)butanamide] | –
4500 nM | 1.62e-06 M | – | CS(=N)(=O)c1cccc(-c2nc3c4ccccc4nc(N[C@@H]4CCCCNC4=O)n3n2)c1 (single isomer, unassigned) [Example 659] | –
927 nM | 8.48e-07 M | – | CS(=N)(=O)c1cccc(-c2nc3c4ccccc4nc(N[C@@H]4CCCCNC4=O)n3n2)c1 (single isomer, unassigned) [Example 660] | –

Compound | IC50 (AHR [1]; [3]) | IC50 (AHR [2]; AHR Antagonism Human IC50 [M]) | IC50 (AHR [2]; read-out: AHR Antagonism Human IC50) | IC50 (AHR [1]; [4])
COc1cccc(-c2nc3c4c(C)cccc4nc(NC4CCNC4=O)n3n2)c1 (single isomer, unassigned) [Example 190, 3-{[2-(3-methoxyphenyl)-10-methyl[1,2,4]triazolo[1,5-c]quinazolin-5-yl]amino}pyrrolidin-2-one] | – | 1.54e-07 M | – | 252 nM
COc1cccc(-c2nc3c4c(C)cccc4nc(NC4CCNC4=O)n3n2)c1 (single isomer, unassigned) [Example 191, 3-{[2-(3-methoxyphenyl)-10-methyl[1,2,4]triazolo[1,5-c]quinazolin-5-yl]amino}pyrrolidin-2-one] | – | 1.96e-07 M | – | 1090 nM
CCCCC(Nc1nc2ccccc2c2nc(-c3cccc(OC(F)(F)F)c3)nn12)C(N)=O (single isomer, unassigned) [Example 324, N^2-{2-[3-(trifluoromethoxy)phenyl][1,2,4]triazolo[1,5-c]quinazolin-5-yl}-norleucinamide] | – | 2.02e-08 M | – | 16.4 nM
